Laboratory results taken from article PMC13327620, “A Deep‐Red‐Absorbing Osmium(II) Complex as a Photosensitizer for Photodynamic Therapy Inducing Immunogenic Cell Death” (Angewandte Chemie (International Ed. in English), 2026).

Key:
[1] = system: MCA205 cells; assay: Annexin V-FITC/propidium iodide (AV/PI) cell viability assay by flow cytometry; format: cell-based, mouse; conditions: MCA205, 740 nm LED light illumination
Text: Regarding the optimal dose of each drug for in vivo vaccination, we continued to follow the same standards as with CT26‐luc cells, using the concentration of each drug that results in approximately 5% of live cells as the in vivo dose. The testing method remained the same, using the AV/PI dual staining assay. Negative controls still included the untreated group (direct injection of PBS solution) and the non‐ICD inducer Cisplatin. Based on the in vitro HMGB‐1 release results, Ce6 was maintained as the positive control. For a more comprehensive comparison, we also added the platinum‐based chemotherapeutic agent Oxaliplatin as a non‐PS ICD inducer, serving as an additional positive control.
As the drug concentration increased, the cells gradually shifted to dying (Q3, Annexin V^+/PI^−) or dead (Q2, Annexin V^+/PI^+ and Q1, Annexin V^−/PI^+) state. For MCA205 cells, the concentrations corresponding to approximately 5% cell survival for each drug were 500 µM Cisplatin and 1400 µM Oxaliplatin in the dark, 5.5 µM Ce6 and 3 µM Os2 under 740 nm LED light illumination. […]
incubated for 24 h. Cells were then treat ed with the determined IC50 of complexes and irradiated or kept in the dark. Supernatants were collected 12 h post-t reatm ent, and the extracellular ATP content was measured with Adenosine 5′ -triphosphate (ATP) Bioluminescent Assay Kit (Sigma-Aldrich) according tomanufacturer ’s ins truction.
Cell viability assay f o r in vivo by flow cytometry
CT26-luc or MCA205 cells were seeded in 6-well plates at a density of 1 ×1 05 cells per well and cultured for 24 h at 37 °C with 5% CO 2. The medium was replaced by various concentrations of the compound dilutions in fresh medium.For Ce6 and Os2, after 4 h incubation in the dark, the medium w as r efr eshed and the plates wer e illuminated with a LUMOS-BIO photoreactor (Atlas Photonics), followed by an additional 20- h incubation in the dark. […]
556419) and PI (BD Biosciences, Catalog no.51- 66211E). CT26- luc cells were analyzed by flow cytometry (Beckm an Coulter Life Sciences, CytoFLEX LX Flow Cytometer). […]

[2] = system: MCA205 cells; assay: In vivo vaccination and rechallenge, MCA205 model; design: species or system C57BL/6 mice; conditions: vaccination with MCA205 cells pre-treated with 500 µM Cisplatin or 1400 µM Oxaliplatin (dark), 5.5 µM Ce6 or 3 µM Os2 (740 nm)
Text: Next, we used these concentrations in the MCA205 vaccination and rechallenge model on C57BL/6 mice to test the in vivo ICD effect of Os2, following the same experimental procedure as that used for CT26‐luc cells in Figure 5A. […] Body weights remained stable across all groups throughout the study, further supporting the good in vivo biosafety of Os2.
The BALB/c female mice were randomly divided into 4 groups with each group containing 5 mice, which were named as Control group, Cisplatin group, Ce6 group and Os2 group. CT26-luc cells wer e treat ed in vitro with 600 µM Cisplatin in the dark, 6.5 µM Ce6 or 1.8 µM Os2 upon 740 nm LED light irradiation (60 min, 12.6 J cm-2) following the methods described above. Subsequently, treated CT26-luc cells (3×10^5 cells in 100 µ L sterile PBS) or 100 µ L sterile PB S were injected subcutaneously into the left flank of each mouse. One week later, mice were r echalleng ed by injection with untreated CT26- luc cells (1×10^6 cells in 100 µL sterile PBS). The mice were monitored by an in vivo imaging system (Biospace Lab, Photon Imager Optima) and the tumor volume was calculated with the following equation: tumor volume = width 2 × length × […]
In vivo vaccination study on MCA205 cells
The C57BL/6 mice were randomly divided into 5 groups with each group containing 10 mice, whi ch w ere nam ed as Control group, Cisplatin group, Oxaliplatin group, Ce6 group and Os2 group. M CA205 cells were treated in vitro with 500 µM Cisplatin o r 1400 µM Oxaliplatin in the dark, 5.5 µM Ce6 or 3 µM Os2 upon 740 nm LED light irradiation (60 min, 12.6 J cm-2) following the methods described above. Subsequently, treated MCA205 cells (3 ×10^5 cells in 100 µ L sterile PBS) or 100 µ L sterile PBS were injected subcutaneously into the left flank of each mouse. One week later, mice were rechallenged by injection with untreated MCA205 cells (1×10^6 cells in 100 µ L sterile PBS). The tumor volume was calculated with the following equation: tumor volume =

[3] = Photophysical properties (fluorescence and singlet oxygen quantum yield, lifetime); format: physicochemical; conditions: in ethanol
Method: System Inc, Phoenixville, PA, USA). The excitation beam is separated by a SPEX dual […]
network monochromator (1200 lines / mm blazed at 330 nm). The fluorescence was […]
measured by the UV-Visible detector via the SPEX dual network emission […]
monochromator (1200 lines / mm blazed at 500 nm). Singlet oxygen production was […]
measured with an infrared detector InGaAs (800 - 1550 nm) via the dual network […]
emission monochromator SPEX (600 lines / mm blazed at 1 µm).
All spectra were measured using 4-sided quartz cells. The absorption values of the […]
references and samples at the excitation wavelength were adjusted to 0.2. All emission […]
spectra were normalized to the same absorbance for the purpose of comparison.
[Ru(bpy)3]2+ in acetonitrile was chosen as standard for both fluorescence and singlet […]
oxygen quantum yield determination. Fluorescence quantum yield of [ Ru(bpy)3]2+ i n […]
acetonitrile is evaluated at 0.077.[5] Singlet oxygen quantum yield of [ Ru(bpy)3]2+ i n […]
acetonitrile is evaluat ed at 0.77.[6]
Time-resolved experiments were performed using for excitation: a pulsed laser diode […]
emitting at 407 nm (LDH-P-C-400M, FWHM < 70 ps, 1 MHz) coupled with a driver […]
PDL 800- D (both PicoQuant GmbH, BERLIN, Germany) and for detection: an […]
avalanch e photodiode SPCM-AQR-15 (EG & G, VAUDREUIL, Can ada) coupled with […]
a 650 nm long- wav e p ass filter as det ection system. The acquisition was p erformed by […]
a PicoHarp 300 module with a 4 channels router PHR-800 (both PicoQuant GmbH, […]
BERLIN, Germany ). Th e fluores cence decays were recorded using the single photon […]
counting method. Data were collected up to 1000 counts accumulated in the maximum […]
channel and analyzed using Time Correlated Single Photon Counting (TCSPC) […]
software Fluofit (PicoQuant GmbH, BERLIN, Germany) based on iterative reconvolution using a Levensberg- M arquandt alg oritm, enabling the obtention of multi-exponential profiles (m ainly one or two exponenti als in our cases ). […]

## C=Cc1c(C)c2cc3nc(c(CC(=O)O)c4[nH]c(cc5nc(cc1[nH]2)C(C)=C5CC)c(C)c4C(=O)O)[C@@H](CCC(=O)O)[C@@H]3C [Ce6, chlorin e6]
[1]
  Concentration corresponding to approximately 5% cell survival: 5.5 µM
[2]
  Tumor growth: partial suppression
[3]
  Fluorescence lifetime: 4.7 ns
  Fluorescence quantum yield: 0.20
  Singlet oxygen quantum yield: 0.65
